Laboratory results taken from patent US20140302113A1, “SYSTEMS, DEVICES, AND METHODS FOR EMBEDDING DRUG MOLECULES INTO MEDICAL CATHETERS OR TUBES” (priority 2011, published 2014).
Read-outs that look alike come from different tables or passages of the source. Each block holds one molecule with its values, some of them ahead of it.

Key:
[1] = solution with pH about 7.4; cited from earlier work
[2] = type: physicochemical; details: loaded catheter in Example 4
Method: 0.16 g of chlorhexidine diacetate was dissolved in 15.8 gram distilled water in a glass jar to form a clear solution. A section of a silicone coated latex Foley catheter (Bardia Foley Catheter, 16 Fr. Reorder No. 123516A, Lot MYUDR067), approximately 16 cm long, was placed into the jar and completely submerged in the solution. 0.08 g of a 10 wt % NaOH solution was added into the loading solution to increase the pH. […] The jar was closed with a cap and placed into an oven with temperatures cycling between about 62° C. and 68° C. The jar was kept in the oven for the next 120 hours and was shaken occasionally during the 120 hour heat treatment period.
The release rates of chlorhexidine from the loaded catheter in Example 4 were measured as follows. The catheter section was thoroughly washed and cut into two pieces, Section A (7.774 cm) and Section B (8.055 cm). Each section was submerged into 17 mL of a 0.15 M pH7.4 phosphate buffer held in a glass vial, which was placed into a 37° C. water bath. At each time point, the catheter section was retrieved from the glass vial, dried, and placed into another glass vial containing 17 mL of a fresh pH 7.4 phosphate buffer. The vial was then placed into the 37° C. water bath. The amount of chlorhexidine in the solution remaining in the first vial was measured with HPLC. This process was repeated at each time point. The average flux of chlorhexidine released from the catheter wall during the period between the current and previous time points was calculated by dividing the total amount of chlorhexidine in the solution (microgram) by the total surface area of the catheter section (cm^2) and by the length of time between the two time points (hour). The result is the amount of chlorhexidine released per square centimeter of the catheter wall per hour. The average chlorhexidine release flux and the average amount of chlorhexidine released from each square centimeter of the catheter wall per 24 hour period are listed in Table 3.

[3] = Foley catheter of Example 6
Method: The tip and the discharge end were discarded because they would not be expected to touch the patient's mucosa during the catheter use. […] The holes on both ends of each of the four catheter sections were blocked. Each of the four catheter sections was placed into a glass scintillation vial. A 0.15 M PBS solution with pH 7.4 was used as release medium. 20.7 mL of the medium was added into the vial to submerge the entire catheter section. The vial was closed tightly and a vinyl tape was wrapped around the cap to prevent solvent evaporation. The vial was placed into a 37° C. water bath with no shaking (mimicking human use), and the time was set as t=0. […] The catheter sections was removed from the vial, dried with a tissue, and placed into a new vial with the same amount of release medium. The new vial was then put back into the same water bath. This process was repeated at each time point. The samples were analyzed with HPLC.

Compound: CC(=O)O.CC(=O)O.NC(=N\CCCCCC/N=C(N)/N=C(\N)Nc1ccc(Cl)cc1)/N=C(\N)Nc1ccc(Cl)cc1 [Chlorhexidine diacetate, chlorhexidine diacetate]
- concentration that can be dissolved in water [1]: higher than 1.5 wt %

- period with more than 1 microgram of chlorhexidine released from each square centimeter of wall surface per 24 hour [2]: at least 11 days
- Average Chlorhexidine Amount/cm^2/24 hr ([2]; time 0.17 day): 218 micrograms
- Average Chlorhexidine Amount/cm^2/24 hr ([2]; time 0.5 day): 43.9 micrograms
- Average Chlorhexidine Amount/cm^2/24 hr ([2]; time 1.1 day): 21.5 micrograms
- Average Chlorhexidine Amount/cm^2/24 hr ([2]; time 1.6 day): 13.1 micrograms
- Average Chlorhexidine Amount/cm^2/24 hr ([2]; time 2 day): 10.2 micrograms
- Average Chlorhexidine Amount/cm^2/24 hr ([2]; time 2.5 day): 4.5 micrograms
- Average Chlorhexidine Amount/cm^2/24 hr ([2]; time 3 day): 4.3 micrograms
- Average Chlorhexidine Amount/cm^2/24 hr ([2]; time 3.5 day): 2.6 micrograms
- Average Chlorhexidine Amount/cm^2/24 hr ([2]; time 4.0 day): 3.3 micrograms
- Average Chlorhexidine Amount/cm^2/24 hr ([2]; time 4.5 day): 3.2 micrograms
- Average Chlorhexidine Amount/cm^2/24 hr ([2]; time 5 day): 3.2 micrograms
- Average Chlorhexidine Amount/cm^2/24 hr ([2]; time 5.5 day): 2.9 micrograms
- Average Chlorhexidine Amount/cm^2/24 hr ([2]; time 6 day): 2.6 micrograms
- Average Chlorhexidine Amount/cm^2/24 hr ([2]; time 6.5 day): 2.2 micrograms
- Average Chlorhexidine Amount/cm^2/24 hr ([2]; time 7 day): 1.8 micrograms
- Average Chlorhexidine Amount/cm^2/24 hr ([2]; time 8 day): 1.2 micrograms
- Average Chlorhexidine Amount/cm^2/24 hr ([2]; time 8.5 day): 1.4 micrograms
- Average Chlorhexidine Amount/cm^2/24 hr ([2]; time 9.0 day): 1.7 micrograms
- Average Chlorhexidine Amount/cm^2/24 hr ([2]; time 10.0 day): 2.0 micrograms
- Average Chlorhexidine Amount/cm^2/24 hr ([2]; time 11 day): 1.1 micrograms
- Average Chlorhexidine Amount/cm^2/24 hr ([2]; time 12 day): 0.8 micrograms
- Average Released Chlorhexidine Amount/cm^2/24 hr ([3]; time 0.17 day): 2.2 micrograms
- Average Released Chlorhexidine Amount/cm^2/24 hr ([3]; time 0.5 day): 3.8 micrograms
- Average Released Chlorhexidine Amount/cm^2/24 hr ([3]; time 1.0 day): 2.8 micrograms
- Average Released Chlorhexidine Amount/cm^2/24 hr ([3]; time 1.5 day): 3.4 micrograms
- Average Released Chlorhexidine Amount/cm^2/24 hr ([3]; time 2 day): 3.2 micrograms
- Average Released Chlorhexidine Amount/cm^2/24 hr ([3]; time 2.5 day): 2.4 micrograms
- Average Released Chlorhexidine Amount/cm^2/24 hr ([3]; time 3.1 day): 1.6 micrograms
- Average Released Chlorhexidine Amount/cm^2/24 hr ([3]; time 3.6 day): 1.5 micrograms
- Average Released Chlorhexidine Amount/cm^2/24 hr ([3]; time 4 day): 1.7 micrograms
- Average Released Chlorhexidine Amount/cm^2/24 hr ([3]; time 4.5 day): 1.0 micrograms
- Average Released Chlorhexidine Amount/cm^2/24 hr ([3]; time 5 day): 1.3 micrograms
- Average Released Chlorhexidine Amount/cm^2/24 hr ([3]; time 5.5 day): 1.0 micrograms
- Average Released Chlorhexidine Amount/cm^2/24 hr ([3]; time 6.5 day): 0.6 micrograms
- Average Released Chlorhexidine Amount/cm^2/24 hr ([3]; time 7 day): 0.7 micrograms
- Average Released Chlorhexidine Amount/cm^2/24 hr ([3]; time 7.5 day): 0.6 micrograms
- Average Released Chlorhexidine Amount/cm^2/24 hr ([3]; time 8 day): 0.5 micrograms
- Average Released Chlorhexidine Amount/cm^2/24 hr ([3]; time 9 day): 0.5 micrograms
- Average Released Chlorhexidine Amount/cm^2/24 hr ([3]; time 9.5 day): 0.5 micrograms
- Average Released Chlorhexidine Amount/cm^2/24 hr ([3]; time 10 day): 0.5 micrograms
- Average Released Chlorhexidine Amount/cm^2/24 hr ([3]; time 11 day): 0.5 micrograms
- Average Released Chlorhexidine Amount/cm^2/24 hr ([3]; time 12 day): 0.5 micrograms
- Average Released Chlorhexidine Amount/cm^2/24 hr ([3]; time 14 day): 0.4 micrograms
Compound: [H]/N=C(\N/C(=N/[H])NCCCCCCNC(=N)NC(=N)Nc1ccc(Cl)cc1)Nc1ccc(Cl)cc1 [Chlorhexidine, chlorhexidine]
